Reference: patent US20030161862A1, “Bacterial growth regulators or inhibitors with the use of 1,5-d-anhydrofructose” (priority 2000, published 2003)

How the values were obtained:
Assay type in all cases: cell-based
[1] = tested on: gram-positive bacteria; assay: minimum growth inhibitory concentration / growth inhibition in agar media; conditions: agar media, without any antioxidant or chelating agent
Method: When a variety of bacteria are cultured in agar media in the presence of 1,5-D-anhydrofructose without any of an antioxidant or a chelating agent, a minimum growth inhibitory concentration of 1,5-D-anhydrofructose is 3.0 to 5.0% for gram-negative bacteria and 1.0 to 3.0% for gram-positive bacteria. Under the circumstances, influences on growth of a variety of bacteria in the presence of 1,5-D-anhydrofructose with or without sodium ascorbate which is a typical antioxidant to be used in food and beverages were examined.
(§1) After the bacterial strains were suspended in physiological salt solutions, they were inoculated into agar media (each containing 0.25% of yeast extract, 0.5% of polypeptone, […]) with platinum loops and then cultured at 37° C. until colonies were formed. Thereafter, the bacteria were inoculated, with sterilized toothpicks, from the colonies into agar media of the above composition each of which contained 1.0% of sodium ascorbate and 1.0% of 1,5-D-anhydrofructose, and into agar media of the above composition each of which contained 1.0% of 1,5-D-anhydrofructose and no sodium ascorbate. For controls, culture media of the same composition each of which contained neither sodium ascorbate nor 1,5-D-anhydrofructose and culture media of the same composition each of which contained 1.0% of sodium ascorbate and no 1,5-D-anhydrofructose were used. Abilities of sodium ascorbate and 1,5-D-anhydrofructose to suppress/inhibit growth of the bacteria were evaluated by visually observing the colonies formed after the bacteria were cultured at 37° C. for one night.
(§2) The substances were used at concentrations shown in the legend of Table 4.

[2] = tested on: Streptococcus eqinus ATCC 9812; assay: growth suppression/inhibition on agar media, colonies observed visually; conditions: agar medium pH 7.0, 37° C. one night; BHA 0.5%, BHT 0.5%, 1,5-D-anhydrofructose 1%
[3] = tested on: Lactobacillus casei ATCC 393; assay: as above
Method: (§3) Under the circumstances, influences on growth of a variety of bacteria in the presence of 1,5-D-anhydrofructose with or without sodium ascorbate which is a typical antioxidant to be used in food and beverages were examined.
as §1, §2
(§4) Those cultured in the absence of the chelating agents, 1,5-D-anhydrofructose, sodium ascorbate and sodium erythorbate were taken as controls. As for an agar medium, a method for inoculating the bacteria, conditions for culturing the bacteria, and a method for evaluating a growth suppressing/inhibiting ability, they are the same as those used in the tests whose results are shown in Tables 2 and 3.

[4] = tested on: Escherichia coli IFO 3301; assay: as above
Method: as §3, §1, §2, §4

[5] = tested on: Bacillus cereus IFO 3131; assay: as above
Method: as §3, §1, §2, §4

[6] = tested on: Proteus vulgaris IFO 3851; assay: as above
Method: as §3, §1, §2, §4

[7] = tested on: Bacillus subtillis IFO 3009; assay: as above; conditions: agar medium pH 7.0, 37° C. one night; BHA 0.5%, BHT 0.5%, 1,5-D-anhydrofructose 1%
[8] = tested on: Bacillus subtillis IFO 3009; assay: as above; conditions: agar medium pH 6.5, 37° C. one night
Source text: as §3
(§5) After the bacterial strains were suspended in physiological salt solutions, they were inoculated into agar media (each containing 0.25% of yeast extract, 0.5% of polypeptone, 1.0% of glucose and 1.5% of soft agar and having a pH of 6.5) with platinum loops and then cultured at 37° C. until colonies were formed. Thereafter, the bacteria were inoculated, with sterilized toothpicks, from the colonies into agar media of the above composition each of which contained 1.0% of sodium ascorbate and 1.0% of 1,5-D-anhydrofructose, and into agar media of the above composition each of which contained 1.0% of 1,5-D-anhydrofructose and no sodium ascorbate. For controls, culture media of the same composition each of which contained neither sodium ascorbate nor 1,5-D-anhydrofructose and culture media of the same composition each of which contained 1.0% of sodium ascorbate and no 1,5-D-anhydrofructose were used. Abilities of sodium ascorbate and 1,5-D-anhydrofructose to suppress/inhibit growth of the bacteria were evaluated by visually observing the colonies formed after the bacteria were cultured at 37° C. for one night.
as §2, §4

[9] = tested on: Streptococcus eqinus ATCC 9812; assay: as above; conditions: agar medium pH 6.5, 37° C. one night
Source text: as §3, §5, §2, §4

[10] = tested on: Enterobactor cloacae JCM 1232; assay: as above; conditions: agar medium pH 6.5, 37° C. one night
Source text: as §3, §5, §2, §4

[11] = tested on: Pseudomonas aeruginosa IFO 12689; assay: as above; conditions: agar medium pH 6.5, 37° C. one night
Source text: as §3, §5, §2, §4

[12] = tested on: Enterobactor cloacae JCM 1232; assay: as above; conditions: agar medium pH 7.0, 37° C. one night; BHA 0.5%, BHT 0.5%, 1,5-D-anhydrofructose 1%
[13] = tested on: Pseudomonas aeruginosa IFO 12689; assay: as above; conditions: agar medium pH 7.0, 37° C. one night; BHA 0.5%, BHT 0.5%, 1,5-D-anhydrofructose 1%
[14] = agar medium pH 6.5, 37° C. one night, 1,5-D-anhydrofructose 1%, sodium citrate 0.5%, sodium polyphosphate 0.2%, sodium malate 0.5%, sodium gluconate 0.5%, sodium tartrate 0.5%, sodium ascorbate 1%, sodium erythorbate 0.2%
[15] = agar medium pH 6.5, 37° C. one night, sodium ascorbate 1%, 1,5-D-anhydrofructose 1%
[16] = agar medium pH 6.5, 37° C. one night, sodium erythorbate 0.2%, 1,5-D-anhydrofructose 1%
[17] = agar medium pH 7.0, 37° C. one night, BHA 0.5%, BHT 0.5%, 1,5-D-anhydrofructose 1%
[18] = 1,5-D-anhydrofructose 1%, sodium citrate 0.5%, sodium polyphosphate 0.2%, sodium malate 0.5%, sodium gluconate 0.5%, sodium tartrate 0.5%, sodium ascorbate 1%, sodium erythorbate 0.2%
[19] = sodium ascorbate 1%, 1,5-D-anhydrofructose 1%
[20] = sodium erythorbate 0.2%, 1,5-D-anhydrofructose 1%

O=C1CO[C@H](CO)[C@@H](O)[C@@H]1O [1,5-D-anhydrofructose]
minimum growth inhibitory concentration [1]: 1.0 to 3.0%
condition of the colonies [2]: ±
condition of the colonies [3, 14]: ±
condition of the colonies [3, 15]: ±
condition of the colonies [3, 16]: ±
condition of the colonies [3, 17]: ±
condition of the colonies [4, 14]: +
condition of the colonies [4, 15]: +
condition of the colonies [4, 16]: +
condition of the colonies [4, 17]: +
condition of the colonies [5, 14]: ±
condition of the colonies [5, 15]: ±
condition of the colonies [5, 16]: ±
condition of the colonies [5, 17]: ±
condition of the colonies [6, 14]: ±
condition of the colonies [6, 15]: ±
condition of the colonies [6, 16]: ±
condition of the colonies [6, 17]: ±
condition of the colonies [7]: +
condition of the colonies [8, 18]: +
condition of the colonies [8, 19]: +
condition of the colonies [8, 20]: +
condition of the colonies [9, 18]: ±
condition of the colonies [9, 19]: ±
condition of the colonies [9, 20]: ±
condition of the colonies [10, 18]: +
condition of the colonies [10, 19]: +
condition of the colonies [10, 20]: +
condition of the colonies [11, 18]: +
condition of the colonies [11, 19]: +
condition of the colonies [11, 20]: +
condition of the colonies [12]: +
condition of the colonies [13]: +
